Results on 27 compounds are retold here after US9290459B1, “Substituted bicyclic dihydropyrimidinones and their use as inhibitors of neutrophil elastase activity” (Boehringer Ingelheim International GmbH, priority 2013, dated 2016).

SMILES strings stand for the structures. ≈ marks a conversion by molar mass, not a printed value. Read-outs that look alike come from different tables or passages of the source. Where only a bound is given, the exact number is not on record here.

The nature of one data set: Aqueous solubility. The format is physicochemical. To be noted: McIlvaine buffer pH 6.8, 2.5% DMSO, 24 h shaking; for solubility at 24 h: McIlvaine buffer pH 6.8 with 2.5% DMSO, pH 6.8, aqueous buffer, kinetic from dmso stock. As for the experimental part:
Assay for Determination of Aqueous Solubility […] After 24 h of shaking, the solutions or suspensions are filtered and analyzed by LC-UV. The amount dissolved in buffer is compared to the amount dissolved in the acetonitrile/water (1/1) solution.

The nature of data set [1]: Drug transport across human Caco-2 cells. The format is in vitro ADME. As to conditions: human; for Papp A→B at 10 µM / Papp B→A at 10 µM: Caco-2, pH 7.2, Caco-2 monolayers, pH 7.2, 37° C.; for Papp A→B at 10 µM: apical-to-basal, read-out: PEAB; for Papp B→A at 10 µM: basal-to-apical, read-out: PEBA; for efflux ratio at 10 μM: Caco-2, pH 7.2, PEBA/PEAB, Caco-2. (Passage across Caco-2 layers is used to estimate intestinal permeability.)

Data set [2] is described as follows: Metabolic stability with human liver microsomes. The format is in vitro ADME. To be noted: for half-life at 1 μM: pH 7.6.
In data set [3] the target is neutrophil elastase in human plasma (Homo sapiens (Human), UniProt P08246). As to the kind of experiment: Neutrophil elastase inhibitory activity in human plasma (zymosan-stimulated blood). The data set is classed as biochemical. As to conditions: neutrophil elastase enriched human plasma from zymosan-stimulated blood; read-out: EC50.
Procedure: Assay for the Determination of Neutrophil Elastase Inhibitory Activity in Human Plasma
Citrated blood from human healthy donors is mixed with zymosan suspension and incubated at room temperature. This leads to the stimulation of neutrophils and the release of neutrophil elastase into the plasma. The stimulated blood is centrifuged to generate the neutrophil elastase enriched plasma.
Various concentrations of the neutrophil elastase inhibitor are incubated with plasma. […] A dose response curve is generated to calculate the EC50 of the inhibitor.
Data set [4] has as its target Human neutrophil elastase (Homo sapiens (Human), UniProt P08246). As to the kind of experiment: Human Neutrophil Elastase Assay. The data set is classed as biochemical. As to conditions: human neutrophil elastase, substrate MeOSuc-Ala-Ala-Pro-Val-AMC 250 μM, pH 7.5; read-out: IC50.
[5] abbreviates: pooled human liver microsomes, 1 mg/ml protein, 1 μM test compound, 37° C., NADPH.

neutrophil elastase in human plasma, sequence (P08246 30-247): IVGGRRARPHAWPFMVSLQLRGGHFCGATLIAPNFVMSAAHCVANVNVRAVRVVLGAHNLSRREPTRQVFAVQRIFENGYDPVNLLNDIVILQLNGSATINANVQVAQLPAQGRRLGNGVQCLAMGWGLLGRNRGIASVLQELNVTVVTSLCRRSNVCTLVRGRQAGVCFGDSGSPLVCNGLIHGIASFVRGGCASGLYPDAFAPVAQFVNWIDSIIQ
Human neutrophil elastase, sequence (P08246 30-247): as above

With `CN1C(=O)N(c2cccc(C(F)(F)F)c2)C2=C(C(=O)CC2)[C@H]1c1ccc(C#N)cc1` [Example 2A, (R)-4-(3-Methyl-2,5-dioxo-1-(3-(trifluoromethyl)phenyl)-2,3,4,5,6,7-hexahydro-1H-cyclopenta[d]pyrimidin-4-yl)benzonitrile], the solubility (as a rule, the dissolved amount per volume that the medium holds) at 24 h in the data set “Aqueous solubility” came to 70 µg/mL (≈ 170 µM). Besides, in data set [1], the Papp A→B at 10 µM worked out at 87 ×10⁻⁶ cm/s and the Papp B→A at 10 µM is 69 ×10⁻⁶ cm/s.

As for `C[S+]([O-])CCNC(=O)N1C(=O)N(c2cccc(C(F)(F)F)c2)C2=C(C(=O)CC2)C1c1ccc(C#N)cc1` (stereo not shown) [Example 7.6], the “t1/2 INVITRO” value in data set [2] (setting [5]) was greater than 2.17 h. For the same compound, the Aqueous solubility (in general, the dissolved amount per volume that the medium holds) in the data set “Aqueous solubility” came to 94 µg/mL.

For `CC(C)(O)CNC(=O)N1C(=O)N(c2ccnc(C(F)(F)F)c2)C2=C(C(=O)CC2)C1c1ccc(C#N)cc1` (stereo not shown) [Example 55, 4-(4-Cyanophenyl)-N-(2-hydroxy-2-methylpropyl)-2,5-dioxo-1-(2-(trifluoromethyl)-pyridin-4-yl)-4,5,6,7-tetrahydro-1H-cyclopenta[d]pyrimidine-3(2H)-carboxamide], in data set [3], the EC50 (in general, the concentration that produces a half-maximal response) is 3 nM. Further, the half-life at 1 μM in data set [2] (human, microsomes) is greater than 2.17 h. Also, in data set [4], the IC50 (usually the concentration needed to halve the response being measured) was determined as 6.1 nM.

In the case of `CNC(=O)N1C(=O)N(c2cccc(C(F)(F)F)c2)C2=C(C(=O)CC2)C1c1ccc(C#N)cc1OC` (stereo not shown) [Example 50.3], in data set [2] (human, microsomes), the half-life at 1 μM was greater than 2.17 h. Also, in data set [1], the Papp A→B at 10 µM was found to be 72.4 ×10⁻⁶ cm/s and the Papp B→A at 10 µM came to 68.1 ×10⁻⁶ cm/s.

With `CCN1C(=O)N(c2cccc(C(F)(F)F)c2)C2=C(C(=O)CC2)C1c1ccc(C#N)cc1S(C)(=O)=O` (stereo not shown) [Example 24, 4-(3-Ethyl-2,5-dioxo-1-(3-(trifluoromethyl)phenyl)-2,3,4,5,6,7-hexahydro-1H-cyclopenta[d]pyrimidin-4-yl)-3-(methylsulfonyl)benzonitrile], the EC50 in data set [3] was 2 nM. The same compound yielded a half-life at 1 μM in data set [2] (human, microsomes) greater than 2.17 h. In addition, in data set [4], the IC50 is 1.6 nM. For the same compound, in data set [1], the Papp A→B at 10 µM was 62.5 ×10⁻⁶ cm/s; the Papp B→A at 10 µM is 85.6 ×10⁻⁶ cm/s; the efflux ratio (as a rule, the permeability from basolateral to apical divided by that in the opposite direction, in the common usage) at 10 μM was 1.4.

Take `CS(=O)(=O)c1cc(C#N)ccc1C1C2=C(CCC2=O)N(c2cccc(C(F)(F)F)c2)C(=O)N1CCCO` (stereo not shown) [Example 24.1]: the “t1/2 INVITRO” value in data set [2] (setting [5]) was found to be 1.67 h. In addition, in the data set “Aqueous solubility”, the Aqueous solubility was 64 µg/mL.

As for `CS(=O)(=O)c1cc(C#N)ccc1C1C2=C(CCC2=O)N(c2cccc(C(F)(F)F)c2)C(=O)N1CC(=O)N1CC2CC2C1` (stereo not shown) [Example 22.4], in data set [2] (setting [5]), the “t1/2 INVITRO” value is greater than 2.17 h.

As to `N#Cc1ccc([C@@H]2C3=C(CCC3=O)N(c3cccc(C(F)(F)F)c3)C(=O)N2C(=O)N[C@H]2CCC[C@@H]2O)cc1` [Example 45.4], the half-life at 1 μM in data set [2] (human, microsomes) was greater than 2.17 h. Also, the concentration in solution in the data set “Aqueous solubility” (solubility at 24 h) came to 28 µg/mL (≈ 53.4 µM). Moreover, in data set [1], the Papp A→B at 10 µM came to 38.1 ×10⁻⁶ cm/s, the Papp B→A at 10 µM turned out to be 77.2 ×10⁻⁶ cm/s and the efflux ratio at 10 μM was found to be 2.

In the case of `CCS(=O)(=O)c1cc(C#N)ccc1C1C2=C(CCC2=O)N(c2cccc(C(F)(F)F)c2)C(=O)N1S(C)(=O)=O` (stereo not shown) [Example 37.4], the half-life at 1 μM in data set [2] (human, microsomes) was greater than 2.17 h. In “Aqueous solubility”, this compound showed a solubility at 24 h of 21 µg/mL (≈ 37 µM). The IC50 in data set [4] amounted to 1.7 nM.

In the case of `CN1CC(NC(=O)N2C(=O)N(c3cccc(C(F)(F)F)c3)C3=C(C(=O)CC3)C2c2ccc(C#N)cc2)CC1=O` (stereo not shown) [Example 7.9], the Aqueous solubility in “Aqueous solubility” is 106 µg/mL.

For the compound `CN(C)CCNC(=O)N1C(=O)N(c2cccc(C(F)(F)F)c2)C2=C(C(=O)CC2)C1c1ccc(C#N)cc1` (stereo not shown) [Example 7.5], the Aqueous solubility in the data set “Aqueous solubility” was 104 µg/mL.

With `CCS(=O)(=O)N1C(=O)N(c2cccc(C(F)(F)F)c2)C2=C(C(=O)CC2)C1c1ccc(C#N)cc1` (stereo not shown) [Example 35, 4-(3-(Ethylsulfonyl)-2,5-dioxo-1-(3-(trifluoromethyl)phenyl)-2,3,4,5,6,7-hexahydro-1H-cyclopenta[d]pyrimidin-4-yl)benzonitrile], the EC50 in data set [3] stood at 7 nM. Moreover, the half-life at 1 μM in data set [2] (human, microsomes) was greater than 2.17 h. Besides, in data set [4], the IC50 is 2.7 nM. For the same compound, in data set [1], the Papp A→B at 10 µM worked out at 56.9 ×10⁻⁶ cm/s, the Papp B→A at 10 µM was found to be 73.8 ×10⁻⁶ cm/s and the efflux ratio at 10 μM was found to be 1.3.

Consider `CS(=O)(=O)N1C(=O)N(c2cccc(C(F)(F)F)c2)C2=C(C(=O)CC2)C1c1ccc(C#N)cc1Cl` (stereo not shown) [Example 37.2], for which the EC50 in data set [3] came out at 17 nM. Besides, the IC50 in data set [4] stood at 9.3 nM. For the same compound, in data set [1], the Papp A→B at 10 µM came to 84.9 ×10⁻⁶ cm/s, the Papp B→A at 10 µM turned out to be 99.8 ×10⁻⁶ cm/s and the efflux ratio at 10 μM turned out to be 1.2.

`N#Cc1ccc(C2C3=C(CCC3=O)N(c3cccc(C(F)(F)F)c3)C(=O)N2C(=O)N[C@@H]2CCC[C@H]2O)cc1` (stereo partly shown) [Example 42.3] registered a half-life at 1 μM in data set [2] (human, microsomes) greater than 2.17 h. Besides, the solubility at 24 h in “Aqueous solubility” was determined as 20 µg/mL (≈ 38.1 µM). Moreover, in data set [1], the Papp A→B at 10 µM is 36.2 ×10⁻⁶ cm/s, the Papp B→A at 10 µM came to 86 ×10⁻⁶ cm/s and the efflux ratio at 10 μM worked out at 2.4.

In data set [2] (human, microsomes), `CS(=O)(=O)c1cc(C#N)ccc1C1NC(=O)N(c2ccnc(C(F)(F)F)c2)C2=C1C(=O)CC2` (stereo not shown) [Example 15.6, 4-(2,5-dioxo-1-(2-(trifluoromethyl)pyridin-4-yl)-2,3,4,5,6,7-hexahydro-1H-cyclopenta[d]-pyrimidin-4-yl)-3-(methylsulfonyl)benzonitrile] came in with a half-life at 1 μM greater than 2.17 h. For the same compound, the concentration in solution in the data set “Aqueous solubility” (solubility at 24 h) was 76 µg/mL (≈ 160 µM). For the same compound, the IC50 in data set [4] came to 43.6 nM.

For `CN1C(=O)N(c2ccnc(C(F)(F)F)c2)C2=C(C(=O)CC2)C1c1ccc(C#N)cc1S(C)(=O)=O` (stereo not shown) [Example 29, 4-(3-Methyl-2,5-dioxo-1-(2-(trifluoromethyl)pyridin-4-yl)-2,3,4,5,6,7-hexahydro-1H-cyclopenta[d]pyrimidin-4-yl)-3-(methylsulfonyl)benzonitrile], the half-life at 1 μM in data set [2] (pooled human liver microsomes, 1 mg/ml protein, 1 μM test compound, 37° C., NADPH, read-out: t1/2 INVITRO) was greater than 2.17 h. In “Aqueous solubility”, this compound yielded a solubility at 24 h of 79 µg/mL (≈ 161 µM). In data set [1], the Papp A→B at 10 µM is 11.8 ×10⁻⁶ cm/s and the Papp B→A at 10 µM came out at 66.2 ×10⁻⁶ cm/s.

Consider `N#Cc1ccc([C@@H]2C3=C(CCC3=O)N(c3cccc(C(F)(F)F)c3)C(=O)N2C(=O)NC2CCS(=O)(=O)CC2)cc1` [Example 46, (R)-4-(4-Cyanophenyl)-2,5-dioxo-N-(1,1-dioxo-hexahydro-1λ^6-thiopyran-4-yl)-1-(3-(trifluoromethyl)phenyl)-4,5,6,7-tetrahydro-1H-cyclopenta[d]pyrimidine-3(2H)-carboxamide], for which the “t1/2 INVITRO” value in data set [2] (setting [5]) was greater than 2.17 h. The compound further gave an Aqueous solubility in “Aqueous solubility” of 10 µg/mL.

Regarding `N#Cc1ccc(C2NC(=O)N(c3cccc(C(F)(F)F)c3)C3=C2C(=O)CC3)cn1` (stereo not shown) [Example 12, 5-(2,5-Dioxo-1-(3-(trifluoromethyl)phenyl)-2,3,4,5,6,7-hexahydro-1H-cyclopenta[d]-pyrimidin-4-yl)picolinonitrile], in data set [4], the IC50 is 201 nM.

`CS(=O)(=O)c1cc(C#N)ccc1C1C2=C(CCC2=O)N(c2cccc(C(F)(F)F)c2)C(=O)N1CCC1CCOCC1` (stereo not shown) [Example 24.6]: in data set [4], the IC50 is less than 1 nM.

As to `CS(=O)(=O)c1cc(C#N)ccc1[C@@H]1C2=C(CCC2=O)N(c2cccc(C(F)(F)F)c2)C(=O)N1C(=O)N[C@H]1CC[C@H](O)C1` [Example 48.4], in data set [4], the IC50 was less than 1 nM.

As for `COC(=O)N1C(=O)N(c2cccc(C(F)(F)F)c2)C2=C(C(=O)CC2)C1c1ccc(C#N)cc1` (stereo not shown) [Example 8, Methyl 4-(4-Cyanophenyl)-2,5-dioxo-1-(3-(trifluoromethyl)phenyl)-4,5,6,7-tetrahydro-1H-cyclopenta[d]pyrimidine-3(2H)-carboxylate], the half-maximal inhibitory concentration (IC50) in data set [4] was determined as 4 nM.

For the compound `Cc1cc(C#N)ccc1C1NC(=O)N(c2cccc(C(F)(F)F)c2)C2=C1C(=O)CC2` (stereo not shown) [Example 15.2], the IC50 in data set [4] worked out at 28.6 nM.

Regarding `N#Cc1ccc([C@@H]2NC(=O)N(c3cccc(C(F)(F)F)c3)C3=C2C(=O)CC3)nc1` [Example 15.3B, (R)-6-(2,5-Dioxo-1-(3-(trifluoromethyl)phenyl)-2,3,4,5,6,7-hexahydro-1H-cyclopenta[d]pyrimidin-4-yl)nicotinonitrile], the IC50 in data set [4] came to 1720 nM.

As for `CCOC(=O)N1C(=O)N(c2cccc(C(F)(F)F)c2)C2=C(C(=O)CC2)C1c1ccc(C#N)cc1` (stereo not shown) [Example 31, Ethyl 4-(4-Cyanophenyl)-2,5-dioxo-1-(3-(trifluoromethyl)phenyl)-4,5,6,7-tetrahydro-1H-cyclopenta[d]pyrimidine-3(2H)-carboxylate], the EC50 in data set [3] is 14 nM. For the same compound, in data set [2] (human, microsomes), the half-life at 1 μM is greater than 2.17 h. The half-maximal inhibitory concentration (IC50) in data set [4] is 4.2 nM. Also, in data set [1], the Papp A→B at 10 µM was found to be 80.9 ×10⁻⁶ cm/s, the Papp B→A at 10 µM worked out at 69.5 ×10⁻⁶ cm/s and the efflux ratio at 10 μM was found to be 0.9.

Consider `CS(=O)(=O)N1C(=O)N(c2cccc(C(F)F)c2)C2=C(C(=O)CC2)C1c1ccc(C#N)cc1` (stereo not shown) [Example 36, 4-(1-(3-(Difluoromethyl)phenyl)-3-(methylsulfonyl)-2,5-dioxo-2,3,4,5,6,7-hexahydro-1H-cyclopenta[d]pyrimidin-4-yl)benzonitrile], for which the IC50 in data set [4] stood at 7.2 nM.

For `C[S+]([O-])c1cc(C#N)ccc1C1NC(=O)N(c2cccc(C(F)(F)F)c2)C2=C1C(=O)CC2` (single isomer, unassigned) [Example 17A, 4-(2,5-dioxo-1-(3-(trifluoromethyl)phenyl)-2,3,4,5,6,7-hexahydro-1H-cyclopenta[d]pyrimidin-4-yl)-3-(methylsulfinyl)benzonitrile], in data set [4], the half-maximal inhibitory concentration (IC50) amounted to 8.1 nM.

For `Cc1cc(C#N)ccc1C1C2=C(CCC2=O)N(c2cccc(C(F)(F)F)c2)C(=O)N1C` (stereo not shown) [Example 26.2], the IC50 in data set [4] was 6.4 nM.
